# Reference: EP1379634B1 (THE UNIVERSITY OF GEORGIA RESEARCH FOUNDATION, INC., priority 2001, dated 2002)
# Residues, ends and D or L forms follow the SMILES beside them. *: point of attachment. Cbz = O=C(OCc1ccccc1)*; CH2F = FC*
# System: purified Taenia solium cysteine protease
# Experiment: Protease inactivator inhibition assay against cocktail, EC100 and Ki (Step VII)
# Type: biochemical
# Text: Once the protease inactivators were synthesized in the organic laboratory, they were to be tested for the lowest efficacious concentrations at which they induced 100% inhibition of the target protease (EC100). The top percent cocktail that was employed in the final vehicle selection step of Step III was employed as the source of competition for the inhibitors. In this case, this was the 7.9% cocktail that was comprised of Z-FR-AFC, Z-FAR-AFC, Z-AP-AFC, Z-AAK-AFC, and Z-VLR-AFC. The final result would be a ranking of transition state candidate protease inactivators with a high ranking directly correlating to a low EC100 value. The following steps describe the assay: • Step A: Initial Screening. To set up the test control, each protease inactivator was first incubated with the 5% cocktail (which provided the final differentiation of vehicles in Step III). To begin with, the protease inactivator was incubated at a concentration of 3 X 10^-9M in 500 ul of assay buffer (0.2 M Citrate, pH 4.9, supplemented with 10mM L-cysteine). This concentration was determined by a series of inhibitor dilutions to be the best inhibitor concentration at which a differentiation in inhibitor potential could be noted. Next, a concentration equal to 4 X 10^-5M for each of the individual cocktail components, was added to the mix. The components were allowed to equilibrate for a period of 30 minutes. Finally, active purified enzyme was added to the tubes at a concentration which was always at least 50 times less than the concentration of the lowest concentration in the mix (so as to provide saturating conditions.) This concentration varied from purification to purification, and the amount that was added depended upon the yield and specific activity of the purified protease. Positive controls were set up similarly as described for test controls, except that solvent was added in substitution for the protease inactivator (in a volume equal to the […] volume addition). All of the protease inactivators could be dissolved in dimethylsulfoxide (DMSO), and therefore, this was the solvent of choice. Negative controls were set up by adding the protease inactivator and the cocktail substrates in a tube, without the protease. All potential non-proteolytic induced liberation of AFC was therefore controlled for in this tube. All controls were set up in triplicate, and experiments repeated a minimum of five times. The assays were incubated at 37°C, overnight. Percent inhibition was calculated as: %Inhibition = ((AFC positive for "SI"−AFC negative for "SI")−(AFC test−AFC negative for "SI"))/(AFC positive for "SI"−AFC negative for "SI") × 100 [formula] • Step B: Inhibitor Dilution Studies and formation of a ranked list of protease inactivators based upon EC100 values. […] Because of this, a dilution study was required in order to determine a viable ranking. Thus, the concentration of each of the protease inactivators was lowered with a dose response setup until the most efficacious concentration for 100% inhibition (EC100) could be determined. The inhibitors had to be diluted to nanomolar levels in order to establish a differentiable EC100 pattern. The final result of the assay was a ranked candidate list of protease inactivators. A lower EC100 was attributable to a higher ranking and vice-versa. • Step C: Determination of Inhibitor Ki and mode of inhibition, and re-ranking of EC100 list with inhibitor Ki. Ki of each of the top ranked protease inactivators, based upon low EC100 values, was assessed next for the top 5 EC100 inhibitors.
# In order to determine Ki, all of the high Vmax cocktail substrates were employed for Ki determination (since Ki of the inhibitor for the enzyme is the same regardless of the substrate). To insure the highest accuracy, Ki was to be determined upon a minimum of at least three of the high Kcat substrates. Nonlinear fitting and the Dixon plot were both employed to determine Ki of the top ranked protease inactivators. […]
smiles,measurement,setting,value
"CC(C)C[C@H](NC(=O)OCc1ccccc1)C(=O)N[C@@H](CC(C)C)C(=O)N[C@@H](Cc1ccc(O)cc1)C(=O)CF [Z-LLY-FMK, Z-Leu-Leu-Tyr-FMK] (Cbz-Leu-Leu-Tyr-CH2F)",% Inhibition of T. solium CP in vitro,concentration not stated in Table 4,97%
same,ranking by EC100,"dilution study, nanomolar levels",top inhibitors
